Assay results: BindingDB's records for doi:10.1021/acsmedchemlett.9b00615 (University of Manchester, 2020)

Tests used:
[1] = Inhibition of RET (unknown origin) expressed in […] cells assessed as reduction in cell viability incubated for 48 hrs by celltiter glo luminescence cell viability assay
[2] = Inhibition of KDR (unknown origin) expressed in […] cells assessed as reduction in cell viability incubated for 48 hrs by celltiter glo luminescence cell viability assay

CN(C)CCCNc1ccn2ncc(-c3ccc4c(c3)OCO4)c2n1
IC50 [1]: 4 µM | IC50 [2]: 9 µM
